A short description of data set [1]: Drug uptake in human MDA-MB-231 cells at 5 uM after 24 hrs by flow cytometric analysis. The class given is ADME, cell-based. To be noted: mda-mb-231, 24 h.
The nature of data set [2]: Drug uptake in nucleus of human MDA-MB-231 cells at 5 uM after 24 hrs by fluorescence microscopic method. The class given is ADME.
Data set [3] in a line: Drug uptake in nucleus of human A549 cells at 5 uM after 24 hrs by fluorescence microscopic method. Format: ADME, cell-based. To be noted: a549, 24 h.
Data set [4] in a line: Drug uptake in nucleus of human A549 cells at 5 uM after 2 hrs by fluorescence microscopic method. Format: ADME, cell-based. The following applies: a549, 2 h.
Data set [5] is described as follows: Drug uptake in human MDA-MB-231 cells at 5 uM after 2 hrs by flow cytometric analysis. The class given is ADME, cell-based. To be noted: mda-mb-231, 2 h.
Data set [6] can be described thus: Drug uptake in human HeLa cells at 5 uM after 24 hrs by flow cytometric analysis. The class given is ADME, cell-based. Background: In flow cytometry, cells or beads pass a laser one at a time.
Data set [7] is described as follows: Drug uptake in nucleus of human MDA-MB-231 cells at 5 uM after 2 hrs by fluorescence microscopic method. Format: ADME.
For data set [8], the system named is MCF7. Briefly: Cytotoxicity against human MCF7 cells assessed as decrease in cell viability treated for 2 hrs measured after 48 hrs by MTT assay. Format: functional, cell-based.
The test system of data set [9] is HeLa. In words: Cytotoxicity against human HeLa cells assessed as decrease in cell viability treated for 2 hrs measured after 48 hrs by MTT assay. Format: functional, cell-based. For orientation: Tetrazolium assays rely on reduction of a dye to a coloured formazan, in cell work by metabolically active cells.
A short description of data set [10]: Drug uptake in nucleus of human HeLa cells at 5 uM after 2 hrs by fluorescence microscopic method. The class given is ADME, cell-based.
Data set [11] in a line: Drug uptake in nucleus of human HeLa cells at 5 uM after 24 hrs by fluorescence microscopic method. Format: ADME, cell-based.
Data set [12] is described as follows: Drug uptake in human HeLa cells at 5 uM after 2 hrs by flow cytometric analysis. The class given is ADME, cell-based.
In data set [13] the test system is MDA-MB-231. Briefly: Cytotoxicity against human MDA-MB-231 cells assessed as decrease in cell viability treated for 2 hrs measured after 48 hrs by MTT assay. The class given is functional, cell-based.
In data set [14] the test system is A549. In words: Cytotoxicity against human A549 cells assessed as decrease in cell viability treated for 2 hrs measured after 48 hrs by MTT assay. The class given is functional, cell-based.
The test system of data set [15] is MDA-MB-231. In words: Cytotoxicity against human MDA-MB-231 cells assessed as decrease in cell viability at 10 uM treated for 2 hrs measured after 48 hrs by MTT assay. Format: functional, cell-based.
For data set [16], the system named is A549. In words: Cytotoxicity against human A549 cells assessed as decrease in cell viability at 10 uM treated for 2 hrs measured after 48 hrs by MTT assay. Format: functional, cell-based.
Data set [17] is described as follows: Drug uptake in cytoplasm of human A549 cells at 5 uM after 2 hrs by fluorescence microscopic method. The class given is ADME, cell-based. The following applies: a549, 2 h.
A short description of data set [18]: Drug uptake in cytoplasm of human MDA-MB-231 cells at 5 uM after 2 hrs by fluorescence microscopic method. Format: ADME.
Data set [19] is described as follows: Drug uptake in cytoplasm of human HeLa cells at 5 uM after 2 hrs by fluorescence microscopic method. The class given is ADME, cell-based.
Data set [20] has as its system HeLa. Briefly: Cytotoxicity against human HeLa cells assessed as decrease in cell viability at 5 uM treated for 2 hrs measured after 48 hrs by MTT assay. Format: functional, cell-based.
Data set [21] deals with MCF7. Briefly: Cytotoxicity against human MCF7 cells assessed as decrease in cell viability at 5 uM treated for 2 hrs measured after 48 hrs by MTT assay. The class given is functional, cell-based.

Active and inactive are the calls of the source. No cut-off for these calls is given here.

One may read the IC50 as the concentration that inhibits the measured activity by half. With `COc1cccc2c1C(=O)c1c(O)c3c(c(O)c1C2=O)C[C@@](O)(C(=O)CO)C[C@@H]3O[C@H]1C[C@H](N)[C@H](O)[C@H](C)O1` [DOXORUBICIN], the Drug uptake entry in data set [1] is listed as “Not Active”; in [2], “Not Active”; in [3] it was “Not Active”; in data set [4], “Active”; in data set [5], “Active”; in data set [6] it was “Not Active”. The Drug uptake entry in data set [7] is listed as “Active”; in data set [10], “Active”; in data set [11], “Not Active”; in data set [12] it was “Active”. For the same compound, the IC50 with MCF7 [8] was determined as 4.39 µM; with HeLa [9], 7.18 µM; with MDA-MB-231 [13], 14.7 µM; in the data set on A549 [14], 11.6 µM.

Turning to `COc1cccc2c1C(=O)c1c(O)c3c(c(O)c1C2=O)C[C@@](O)(C(=O)COC(=O)CCC(=O)NCCCO[C@H]1CC[C@@]2(C)C(=CC[C@H]4[C@@H]5CC[C@H]([C@H](C)CCCC(C)C)[C@@]5(C)CC[C@@H]42)C1)C[C@@H]3O[C@H]1C[C@H](N)[C@H](O)[C@H](C)O1`, the outcome in the data set on MDA-MB-231 [15], with A549 [16], with HeLa [20] and in the data set with MCF7 [21] was Active. Further, the Drug uptake result in data set [1], in data set [2], in data set [3], in data set [17], in data set [6] and in data set [18] was “Active” in each case. For the same compound, the Drug uptake result in [19] and in data set [11] was “Active” in each case. The half-inhibitory concentration (IC50) with MCF7 [8] was determined as 9.94 µM; in the data set on HeLa [9] it was 27.9 µM; in the data set with MDA-MB-231 [13], 21.6 µM; in the data set with A549 [14], 11.2 µM.

Regarding `COc1cccc2c1C(=O)c1c(O)c3c(c(O)c1C2=O)C[C@@](O)(C(=O)CO)C[C@@H]3O[C@H]1C[C@H](NC(=O)CCC(=O)NCCCNC(=O)O[C@H]2CC[C@@]3(C)C(=CC[C@H]4[C@@H]5CC[C@H]([C@H](C)CCCC(C)C)[C@@]5(C)CC[C@@H]43)C2)[C@H](O)[C@H](C)O1`, the result with MDA-MB-231 [15], in the data set with A549 [16], with HeLa [20] and in the data set on MCF7 [21] was inactive.

For `COc1cccc2c1C(=O)c1c(O)c3c(c(O)c1C2=O)C[C@@](O)(C(=O)COC(=O)CCC(=O)NCCCNC(=O)O[C@H]1CC[C@@]2(C)C(=CC[C@H]4[C@@H]5CC[C@H]([C@H](C)CCCC(C)C)[C@@]5(C)CC[C@@H]42)C1)C[C@@H]3O[C@H]1C[C@H](N)[C@H](O)[C@H](C)O1`, the outcome in the data set on MDA-MB-231 [15], in the data set with A549 [16], in the data set with HeLa [20] and in the data set with MCF7 [21] was Active. Further, the Drug uptake entry in data set [1] and in [6] was “Not Active” in each case. Moreover, the IC50 in the data set with MCF7 [8] is 9.69 µM; in the data set with HeLa [9], 8.03 µM; in the data set on MDA-MB-231 [13], 16.4 µM; with A549 [14] it was 8.03 µM.

With `COc1cccc2c1C(=O)c1c(O)c3c(c(O)c1C2=O)C[C@@](O)(C(=O)CO)C[C@@H]3O[C@H]1C[C@H](NC(=O)CCC(=O)NCCCO[C@H]2CC[C@@]3(C)C(=CC[C@H]4[C@@H]5CC[C@H]([C@H](C)CCCC(C)C)[C@@]5(C)CC[C@@H]43)C2)[C@H](O)[C@H](C)O1`, the result in the data set on MDA-MB-231 [15], with A549 [16], with HeLa [20] and with MCF7 [21] was inactive.
